Experiments:
[1] = test system: ICR mice icv-injected with Aβ1–42; assay: Morris water maze, mice model with icv-injection of Aβ1–42; format: in vivo; settings: 10 mg/kg, ip; compared with compound 8
Procedure: Mice model with icv-injection of Aβ1–42 The experiments were performed using ICR male mice (8–10 weeks old, weight 18–20 g), which were purchased from Shanghai Bikai Animal Breeding Factory (Shanghai, China). Animals were housed in cages (6 mice per cage) at a constant temperature of 25±2 °C, humidity of 55%±10% and a light/dark (12:12) cycle. The mice had unlimited access to food and water prior to the experiment. Specified conditions for the maintenance of mice were ensured throughout the experiments, including tree bedding (Yizheng Anlimao Biotechnology Co., Ltd., China) and lab feed (Zimao, China). For behavioural tests, mice were selected randomly, each group consisted of 6 mice. The experiments were performed between 9 am and 3 pm.
According to the literature procedure, recombinant human hexafluoroisopropanol-pretreated Aβ1–42 from Merck Millipore (Darmstadt, Germany) was dissolved in 1% DMSO, diluted with saline to the final concentration of 2 mg/mL, and incubated for 72 h to form oligomers. […]
Behavioural assays The Morris water maze was placed in a lighted room at 25 °C, and it was divided into four equal quadrants. […] The time spent searching for the missing platform was recorded by Xeye Aba image processing system (Beijing Zhongshi Dichuang Technology Development Co., Ltd.) and analysed by GraphPad Prism 5.

[2] = target: T1, hBChE (Homo sapiens, UniProt P06276); assay: hBChE binding kinetics: carbamoylation and decarbamoylation, initial velocity measurements; format: biochemical
Procedure: The progress curves for the time courses of product formation for the hydrolysis of butyrylthiocholine iodide were measured on an Agilent Cary 3500 UV–VIS spectrophotometer with Compact Peltier (thermostated at 25 °C) at 412 nm using a 0.6 mL cuvette (optical path–0.5 cm). 30 mmol/L Tris buffer pH 7.0 with 1 mg/mL BSA and 0.02% NaN3 was used and all dilutions were done in glass vessels (note: dilute hBChE solutions rapidly lose activity, presumably due to adsorption to plastic, preventing meaningful decarbamoylation assays. In our hands, under the above conditions only, the diluted and stock solutions of hBChE were stable for at least a month at room temperature.). Total volume in the cuvette was always 500 μL, and enzyme solutions that gave upon dilution v0 = (dA/dt) ≈ 0.5 (for carbamoylation) and ≈ 1 for (for decarbamoylation) were used. For carbamoylation experiments, 0.5–1 μL of enzyme stock, 5 μL of compound solution, and 484 μL of buffer were preincubated for the specified time, then 10 μL of the mixture of 25 mmol/L Ellman’s reagent (DTNB) and 20 mmol/L butyrylthiocholine (large excess to prevent substrate depletion) were added, quickly mixed, and measurement started. […] The data analysis followed the literature[63]^,[98].

[3] = target: hAChE (Homo sapiens, UniProt P22303); assay: ChE IC50 determination, method of Ellman, hAChE; format: biochemical; settings: for remaining activity at 100 µM: residual activity at 100 μmol/L, after 5 min preincubation, read-out: hAChE RA±SD (residual activity)
Procedure: (§1) The inhibitory potencies of the compounds against the ChEs were determined using the method of Ellman following the procedure described previously. Briefly, compound stock solutions in DMSO were incubated with Ellman’s reagent and ChEs (final concentrations: 370 μmol/L Ellman’s reagent, approximately 1 nmol/L or 50 pmol/L hBChE or hAChE, respectively) in 0.1 mol/L sodium phosphate pH 8.0 for 5 min at 20 °C. For time-dependency measurements, the pre-incubation time was varied (1, 5, 15, 30 or 60 min). The reactions were started by the addition of the substrate (final concentration, 500 μmol/L butyrylthiocholine iodide or acetylthiocholine iodide for hBChE and hAChE, respectively). The final content of DMSO was always 1%. The increase in absorbance at 412 nm was monitored for 2 min using a 96-well microplate reader (Synergy HT, BioTek Instruments, VT, USA). The initial velocities in the presence (vi) and absence (v0) of the test compounds were calculated. The inhibitory potencies were expressed as the residual activities, according to Eq. (1):(1) RA = vi / v0
(§2) For IC50 determinations, at least seven different concentrations for each compound were used. The IC50 values were obtained by plotting the residual ChE activities against the applied inhibitor concentrations, with the experimental data fitted to a four-parameter logistic function (GraphPad Prism 9.4). Tacrine and donepezil were used as positive controls.

[4] = target: T1, hBChE; assay: ChE IC50 determination, method of Ellman, hBChE; format: biochemical
Procedure: as §1, §2

[5] = design: method as in PMID 1975199, PMID 16389294; settings: in humans; cited from earlier work
[6] = test system: α2 adrenoreceptors; design: method as in PMID 1975199, PMID 16389294; settings: α2 adrenergic antagonist; cited from earlier work

Sequence of hAChE (P22303 32-614): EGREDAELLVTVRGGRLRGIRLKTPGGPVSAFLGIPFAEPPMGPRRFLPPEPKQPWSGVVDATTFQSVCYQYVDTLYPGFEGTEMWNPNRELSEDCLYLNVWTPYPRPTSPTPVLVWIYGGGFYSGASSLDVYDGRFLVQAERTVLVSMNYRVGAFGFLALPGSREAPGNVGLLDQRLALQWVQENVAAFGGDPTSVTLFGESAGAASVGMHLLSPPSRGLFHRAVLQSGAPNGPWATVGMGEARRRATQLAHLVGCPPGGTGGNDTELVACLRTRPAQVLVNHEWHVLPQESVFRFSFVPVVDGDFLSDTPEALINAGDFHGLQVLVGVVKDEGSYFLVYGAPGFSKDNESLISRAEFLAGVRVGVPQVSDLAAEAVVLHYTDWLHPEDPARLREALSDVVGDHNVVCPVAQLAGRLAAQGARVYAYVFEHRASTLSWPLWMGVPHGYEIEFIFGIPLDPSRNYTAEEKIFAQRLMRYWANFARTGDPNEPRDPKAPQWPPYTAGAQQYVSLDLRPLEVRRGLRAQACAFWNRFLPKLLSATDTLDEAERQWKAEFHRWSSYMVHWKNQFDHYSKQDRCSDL
T1 sequence (P06276 29-602): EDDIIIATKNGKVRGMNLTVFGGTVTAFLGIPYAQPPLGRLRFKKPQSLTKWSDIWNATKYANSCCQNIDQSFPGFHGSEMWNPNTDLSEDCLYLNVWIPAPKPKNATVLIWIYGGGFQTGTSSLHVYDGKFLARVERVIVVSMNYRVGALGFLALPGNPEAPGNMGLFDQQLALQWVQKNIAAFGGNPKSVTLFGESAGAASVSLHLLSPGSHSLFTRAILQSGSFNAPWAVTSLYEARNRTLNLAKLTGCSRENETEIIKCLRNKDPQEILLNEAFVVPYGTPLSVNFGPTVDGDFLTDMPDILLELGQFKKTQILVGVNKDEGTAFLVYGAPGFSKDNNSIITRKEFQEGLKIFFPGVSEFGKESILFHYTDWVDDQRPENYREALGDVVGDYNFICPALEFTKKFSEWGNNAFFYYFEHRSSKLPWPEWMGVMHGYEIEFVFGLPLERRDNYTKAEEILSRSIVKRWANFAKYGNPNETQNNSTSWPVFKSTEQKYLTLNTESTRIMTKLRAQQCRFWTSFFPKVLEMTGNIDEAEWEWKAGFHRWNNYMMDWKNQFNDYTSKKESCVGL

SMILES | effectiveness in MWM test [1] | Ki [2] | kcarb, carbamoylation ([2]; 25 °C) | kdecarb, decarbamoylation ([2]; 25 °C) | t1/2, decarbamoylation ([2]; 25 °C) | ΔG25°C‡, carbamoylation ([2]; 25 °C) | hAChE time-dependency observed: Yes/No ([3]; pre-incubation time varied) | remaining activity at 100 µM [3] | IC50 ([4]; after 5 min preincubation, read-out: hBChE IC50±SD) | hBChE time-dependency observed: Yes/No ([4]; pre-incubation time varied) | half-life [5] | ChE inhibition of the leaving groups ([4]; ChEs (hBChE and hAChE)) | remaining activity at 100 µM ([4]; residual activity at 100 μmol/L, after 5 min preincubation, read-out: hBChE RA±SD (residual activity)) | potency compared to idazoxan 2 [6]
CCN(C)C(=O)n1cnc(C2(CC)Cc3ccccc3C2)c1 [Compound 7, N-Ethyl-4-(2-ethylindan-2-yl)-N-methyl-1H-imidazole-1-carboxamide] | less effective | 0.073 ± 0.006 µM | 7.2±4.5 min^–1 | 0.92±0.14 ×10^–2 h^–1 | 75 ± 11 h | 78.2 ± 1.7 kJ/mol | Yes | 52 ± 3% | 0.0099 ± 0.0009 µM | Yes | – | – | – | –
CCC1(c2cnc[nH]2)Cc2ccccc2C1 [Compound 5, 4-(2-ethylindan-2-yl)-1H-imidazole, reference compound] | – | – | – | – | – | – | – | 82% | – | – | 1.7 to 2 h | ineffective | 82% | approx. 100 fold
